Data from patent US10500304B2, “Films and methods of manufacture” (priority 2013, dated 2019).

Key:
[1] = In vitro release of triclosan from films; type: physicochemical; settings: in vitro testing
[2] = test system: Enterobacter cloacae ATCC 29941; assay: Zone of inhibition (ZOI) on Mueller Hinton agar; type: cell-based; settings: 6 mm punches or filter disk, 36° C., 16-18 hours
Procedure: (§1) Testing was performed with 4 different species of bacteria. […] S. aureus ATCC 25923; S. epidermidis ATCC 12228; Pseudomonas aeruginosa ATCC 10145; Enterobacter [NT] 29941 Glass culture tubes (VWR #:89001-480); Blank Disks, 6.35 mm diameter (VWR#: 90002-114); 6 mm Disposable Biopsy Punches (VWR#: 21909-144); Mueller Hinton agar dishes (VWR #: 100219-188); 0.5 McFarland turbidity standard (VWR #: 29447-318); dPBS (VWR #: 12001-664); Cotton swabs; Incubator; Thermometer; Bacterial hood […] Swirl the swab in this tube and when removing the swab, press it into the side of the tube above the liquid. • Inoculate Mueller-Hinton agar plates by streaking once down the middle of the plate. […] After streaking the entire plate, streak the swab around the rim of the plate. • Place filter disks/punches onto the dish. • Place in the 36° C. incubator within 15 minutes inoculating dish. • Incubate 16-18 hours. • Measure ZOI in millimeters using slide caliper (ZOI was measured a linear distance measured through the center point of the disk). FIG. 28 illustrates the minimum effective concentration and measured ZOI.

S. aureus ATCC 25923 = assay: Zone of inhibition (ZOI) on Mueller Hinton agar; type: cell-based; settings: 6 mm punches or filter disk, 36° C., 16-18 hours
Procedure: as §1

[3] = test system: S. epidermidis ATCC 12228; assay: Zone of inhibition (ZOI) on Mueller Hinton agar; type: cell-based; settings: 6 mm punches or filter disk, 36° C., 16-18 hours
Procedure: as §1

[4] = test system: Pseudomonas aeruginosa ATCC 10145; assay: Zone of inhibition (ZOI) on Mueller Hinton agar; type: cell-based; settings: 6 mm punches or filter disk, 36° C., 16-18 hours
Procedure: as §1

[5] = Implantation of sleeve-covered metal plates in sheep; settings: within 24 hours after insertion, sleeves
Procedure: In one exemplary embodiment, implants were tested by implantation in sheep. The implants were metal plates with tubular, thin (0.05-0.08 mm), transparent polymer sleeves carefully slipped over the metal plates just before they were surgically inserted and attached to the bone. […] The sleeves were comprised of a synthetic copolyester (glycolide, caprolactone, trimethylenecarbonate, lactide) with aperture holes of 1.5 mm diameter equally spaced throughout.

Compound: Oc1cc(Cl)ccc1Oc1ccc(Cl)cc1Cl [triclosan, 2,4,4′-trichloro-2′-hydroxydiphenyl ether]
- initial burst release [1]: minimal
- period of release from films [1]: slowly over a to 3 weeks period

Compound: Gentamicin [120 ug gentamicin]
- Avg. ZOI (mm) E. cloacae ([2]; 0.1-5% films data set): 22.4 mm
- Avg. ZOI (mm) E. cloacae ([2]; 13% film tested separately): 25.27 mm
- Avg. ZOI (mm) S. aureus (S. aureus ATCC 25923; 0.1-5% films data set): 30.5 mm
- Avg. ZOI (mm) S. aureus (S. aureus ATCC 25923; 13% film tested separately): 28.73 mm
- Avg. ZOI (mm) S. epidermidis ([3]; 0.1-5% films data set): 34.9 mm
- Avg. ZOI (mm) S. epidermidis ([3]; 13% film tested separately): 31.37 mm
- Avg. ZOI (mm) P. aeruginosa ([4]; 0.1-5% films data set): 26.7 mm
- Avg. ZOI (mm) P. aeruginosa ([4]; 13% film tested separately): 24.90 mm

Compound: gentamicin
- gentamicin released into the adjacent tissue [5]: Approximately 50%
